Laboratory results: the CheMixHub ionic liquid set

Test: xn = mol fraction of the nth substance listed

CCCCCC[n+]1ccn(C)c1.O=S(=O)([N-]S(=O)(=O)C(F)(F)F)C(F)(F)F + CC(C)O
viscosity [mPa·s], 100 kPa
Settings | x2 = 0 | x2 = 0.0845 | x2 = 0.2111 | x2 = 0.3269 | x2 = 0.4529 | x2 = 0.5435 | x2 = 0.637 | x2 = 0.7321 | x2 = 0.8285 | x2 = 0.9173
293.15 K | 85.2 | 73.5 | 57 | 42.3 | 29.9 | 22.4 | 16.2 | 12 | 8.01 | 4.5
298.15 K | 65.9 | 56.6 | 44.5 | 34.1 | 24.2 | 18.8 | 13.6 | 9.86 | 6.52 | 3.73
303.15 K | 51.9 | 45 | 36.5 | 28.6 | 20.2 | 15.6 | 11.4 | 8.26 | 5.51 | 3.24
308.15 K | 41.4 | 36 | 30.5 | 24.1 | 17.2 | 13.2 | 9.62 | 7.11 | 4.67 | 2.82
313.15 K | 33.8 | 30.5 | 25.6 | 20.6 | 14.9 | 11.3 | 8.31 | 6.06 | 3.98 | 2.41

CC[n+]1ccn(CCOC)c1.O=S(=O)([O-])C(F)(F)F + CC(C)O
viscosity [mPa·s], 101 kPa
Settings | x1 = 0.0997 | x1 = 0.2004 | x1 = 0.3004 | x1 = 0.4003 | x1 = 0.5004 | x1 = 0.601 | x1 = 0.7 | x1 = 0.8 | x1 = 0.9 | x1 = 1
288.15 K | 4.72 | 7.33 | 10.86 | 16.19 | 21.8 | 33.6 | 47.3 | 64.2 | 85.2 | 121
293.15 K | 4.047 | 6.23 | 9.17 | 13.53 | 18.15 | 27.6 | 38 | 51.3 | 65.2 | 92.5
298.15 K | 3.489 | 5.36 | 7.83 | 11.45 | 15.16 | 22.88 | 31.09 | 41.4 | 52.2 | 72.5
303.15 K | 3.03 | 4.64 | 6.75 | 9.8 | 12.85 | 19.27 | 25.81 | 33.89 | 42.7 | 57.9
308.15 K | 2.654 | 4.06 | 5.87 | 8.47 | 11.07 | 16.64 | 21.71 | 28.27 | 35.58 | 47.3
313.15 K | 2.336 | 3.599 | 5.15 | 7.38 | 9.64 | 14.32 | 18.62 | 23.79 | 30.09 | 39
318.15 K | 2.068 | 3.192 | 4.55 | 6.49 | 8.54 | 12.42 | 16.2 | 20.22 | 25.83 | 32.59

CCCC[N+](CCCC)(CCCC)CCCC.[Br-] + CCCCCCCCCCCCOS(=O)(=O)[O-].[Na+] + O
viscosity [mPa·s], 100 kPa
Settings | x2 = 1.81e-06, x1 = 0.0001802 | x2 = 3.61e-06, x1 = 0.0001802 | x2 = 5.42e-06, x1 = 0.0001802 | x2 = 7.23e-06, x1 = 0.0001802 | x2 = 9.04e-06, x1 = 0.0001802 | x2 = 1.084e-05, x1 = 0.0001802 | x2 = 1.265e-05, x1 = 0.0001802 | x2 = 1.446e-05, x1 = 0.0001802 | x2 = 1.627e-05, x1 = 0.0001802 | x2 = 1.807e-05, x1 = 0.0001802
293.15 K | 1.023 | 1.024 | 1.026 | 1.027 | 1.028 | 1.029 | 1.029 | 1.03 | 1.03 | 1.03
298.15 K | 0.916 | 0.919 | 0.92 | 0.921 | 0.922 | 0.922 | 0.923 | 0.924 | 0.924 | 0.925
303.15 K | 0.8 | 0.801 | 0.802 | 0.802 | 0.803 | 0.803 | 0.803 | 0.803 | 0.804 | 0.804
308.15 K | 0.72 | 0.721 | 0.722 | 0.723 | 0.724 | 0.724 | 0.724 | 0.725 | 0.725 | 0.725
313.15 K | 0.654 | 0.655 | 0.656 | 0.657 | 0.657 | 0.657 | 0.657 | 0.657 | 0.657 | 0.658
318.15 K | 0.6 | 0.601 | 0.601 | 0.601 | 0.602 | 0.602 | 0.602 | 0.602 | 0.602 | 0.603

CCCC[N+](CCCC)(CCCC)CCCC.[Br-] + CCCCCCCCCCCC[N+](C)(C)C.[Br-] + O
viscosity [mPa·s], 100 kPa
Settings | x2 = 5.422e-05, x1 = 0.0001802 | x2 = 0.0001084, x1 = 0.0001801 | x2 = 0.0001626, x1 = 0.0001801 | x2 = 0.0002169, x1 = 0.0001801 | x2 = 0.0002711, x1 = 0.0001801 | x2 = 0.0003252, x1 = 0.0001801 | x2 = 0.0003794, x1 = 0.0001801 | x2 = 0.0004336, x1 = 0.0001801 | x2 = 0.0004878, x1 = 0.0001801 | x2 = 0.000542, x1 = 0.0001801
293.15 K | 1.056 | 1.057 | 1.059 | 1.061 | 1.061 | 1.062 | 1.062 | 1.063 | 1.063 | 1.063
298.15 K | 0.939 | 0.942 | 0.943 | 0.945 | 0.946 | 0.946 | 0.948 | 0.949 | 0.95 | 0.951
303.15 K | 0.824 | 0.825 | 0.826 | 0.826 | 0.827 | 0.827 | 0.828 | 0.828 | 0.828 | 0.828
308.15 K | 0.742 | 0.744 | 0.745 | 0.746 | 0.746 | 0.746 | 0.747 | 0.747 | 0.747 | 0.747
313.15 K | 0.675 | 0.676 | 0.677 | 0.677 | 0.678 | 0.678 | 0.678 | 0.678 | 0.678 | 0.679
318.15 K | 0.62 | 0.621 | 0.621 | 0.621 | 0.622 | 0.622 | 0.622 | 0.622 | 0.622 | 0.623

CCCCCCCC(=O)[O-].c1c[nH+]c[nH]1 + CCCCCCCCO
101.3 kPa
Settings | viscosity [mPa·s]
293.15 K, x2 = 0.4 | 39.42
293.15 K, x2 = 0.6005 | 24
298.15 K, x2 = 0.4 | 33.3
298.15 K, x2 = 0.5007 | 25.9
298.15 K, x2 = 0.6005 | 20.3
298.15 K, x2 = 0.8997 | 9.1
303.15 K, x2 = 0.6005 | 17.2
308.15 K, x2 = 0.1011 | 40.69
308.15 K, x2 = 0.6999 | 11.72
313.15 K, x2 = 0.6005 | 12.3
318.15 K, x2 = 0.1011 | 27.68
318.15 K, x2 = 0.799 | 6.7
318.15 K, x2 = 0.8997 | 5.38
323.15 K, x2 = 0.1011 | 22.9
323.15 K, x2 = 0.2991 | 17.1
323.15 K, x2 = 0.8997 | 4.82

CC1=CCC(C(C)C)=CC1 + CCCCCCCC[N+](CCCCCCCC)(CCCCCCCC)CCCCCCCC.[Br-] + [Cl-].[Cl-].[Co+2]
Settings | viscosity [mPa·s]
296.1 K, 101.3 kPa, x2 = 0.4, x3 = 0.2 | 120000

CCCCCCCCn1cc[n+](C)c1C.F[P-](F)(F)(F)(F)F + CCCCCCCC[n+]1ccn(C)c1.F[P-](F)(F)(F)(F)F
100 kPa, x2 = 0.5
Settings | viscosity [mPa·s]
333.15 K | 90.3
343.15 K | 60.9
353.15 K | 44.5

O=C1c2ccccc2C(=O)C1(O)O + CCCC[N+](CCCC)(CCCC)CCCC.O=S(=O)([O-])O
100 kPa, x2 = 0.571
Settings | electrical conductivity [S/m] | viscosity [mPa·s]
293.15 K | 2.5e-06 | –
298.15 K | 7.8e-06 | –
303.15 K | 2.49e-05 | –
308.15 K | 6.58e-05 | –
313.15 K | 0.000153 | –
318.15 K | 0.000325 | –
323.15 K | 0.000614 | –
328.15 K | 0.00109 | 27000
333.15 K | 0.00183 | –
343.15 K | – | 6500

c1nnn[nH]1 + CCCC[P+](CCCC)(CCCC)CCCC.[Cl-] + [N]=O
303.15 K, 101.3 kPa
Settings | viscosity [mPa·s]
x1 = 0.2439, x2 = 0.2439 | 3.1
x1 = 0.2518, x2 = 0.2518 | 4
x1 = 0.2597, x2 = 0.2597 | 4
x1 = 0.2723, x2 = 0.2723 | 6
x1 = 0.2867, x2 = 0.2867 | 9.2

CCCCC(=O)[O-].CC[NH+](CC)CCO + CCCC[n+]1ccn(C)c1.COP(=O)([O-])OC
101 kPa
Settings | viscosity [mPa·s]
278.15 K, x1 = 0.6984 | 216.8
283.15 K, x1 = 0.4973 | 226.8
288.15 K, x1 = 0.1018 | 874
293.15 K, x1 = 0.1018 | 594
298.15 K, x1 = 0.1952 | 271.2
298.15 K, x1 = 0.5989 | 76
298.15 K, x1 = 0.7978 | 58.54
303.15 K, x1 = 0.1952 | 199.9
303.15 K, x1 = 0.3029 | 132
303.15 K, x1 = 1 | 37.12
308.15 K, x1 = 0.1952 | 150.4
308.15 K, x1 = 0.5989 | 46.85
313.15 K, x1 = 0.3029 | 79.5
313.15 K, x1 = 0.4003 | 58.57
313.15 K, x1 = 0.5989 | 37.62
313.15 K, x1 = 0.8868 | 26.19
318.15 K, x1 = 0.1952 | 90.1
318.15 K, x1 = 0.4003 | 47.13
318.15 K, x1 = 0.5989 | 30.62
318.15 K, x1 = 0.6984 | 26.67
323.15 K, x1 = 0.7978 | 19.5
328.15 K, x1 = 0.4973 | 25.35
328.15 K, x1 = 0.5989 | 21.04
328.15 K, x1 = 0.6984 | 18.34
333.15 K, x1 = 0.1018 | 62.36
333.15 K, x1 = 0.3029 | 34.47
333.15 K, x1 = 0.4003 | 26.54
333.15 K, x1 = 0.8868 | 12.34
333.15 K, x1 = 1 | 10.94
338.15 K, x1 = 0.1952 | 38.69
338.15 K, x1 = 0.4973 | 18.07
338.15 K, x1 = 0.5989 | 15.08
343.15 K, x1 = 0.4003 | 19.11
343.15 K, x1 = 0.4973 | 15.48
343.15 K, x1 = 0.6984 | 11.27
348.15 K, x1 = 0.5989 | 11.19
353.15 K, x1 = 0.5989 | 9.76
358.15 K, x1 = 0.8868 | 5.91
358.15 K, x1 = 1 | 5.15
363.15 K, x1 = 0.1018 | 21.41
363.15 K, x1 = 0.6984 | 6.56
373.15 K, x1 = 0.4003 | 8.6
373.15 K, x1 = 1 | 3.53

NC=O + CCCC[n+]1ccn(C)c1.F[B-](F)(F)F
101 kPa
Settings | viscosity [mPa·s]
293.15 K, x2 = 0 | 3.66
293.15 K, x2 = 0.2758 | 10.51
293.15 K, x2 = 0.3629 | 16.75
293.15 K, x2 = 0.5095 | 31.8
293.15 K, x2 = 0.569 | 39.6
298.15 K, x2 = 0.2758 | 9.47
298.15 K, x2 = 0.7588 | 56.7
298.15 K, x2 = 0.8107 | 64.8
303.15 K, x2 = 0.4499 | 17.48
303.15 K, x2 = 0.8107 | 50.9
303.15 K, x2 = 0.8626 | 57.3
303.15 K, x2 = 0.9313 | 66.4
308.15 K, x2 = 0.2758 | 7.5
308.15 K, x2 = 0.4499 | 14.74
308.15 K, x2 = 0.9313 | 51.2
313.15 K, x2 = 0.2054 | 4.61
313.15 K, x2 = 0.3629 | 8.75
313.15 K, x2 = 0.4499 | 11.81
318.15 K, x2 = 0.2758 | 5.08
318.15 K, x2 = 0.569 | 14.1
318.15 K, x2 = 0.6639 | 18.31
318.15 K, x2 = 0.8626 | 29.35
